# Assays:
# D(3) dopamine receptor = D(3) dopamine receptor (Homo sapiens, UniProt P35462); assay: Binding affinity to human cloned dopamine D3 receptor
# D(2) dopamine receptor = D(2) dopamine receptor (Homo sapiens, UniProt P14416); assay: Binding affinity to human cloned dopamine D2 receptor
# Liver microsomes [1] = assay: Metabolic stability in rat liver microsomes; assay type: ADME, Microsome
# Liver microsomes [2] = assay: Metabolic stability in human liver microsomes; assay type: ADME, Microsome
# Rattus norvegicus = assay: Antagonism of agonist-induced huddling deficits in orally administered rat; assay type: functional; details: po
# [3] = Permeability across Caco-2 cell membrane; assay type: ADME, cell-based; details: human
# D(3) dopamine receptor, sequence (P35462 whole entry): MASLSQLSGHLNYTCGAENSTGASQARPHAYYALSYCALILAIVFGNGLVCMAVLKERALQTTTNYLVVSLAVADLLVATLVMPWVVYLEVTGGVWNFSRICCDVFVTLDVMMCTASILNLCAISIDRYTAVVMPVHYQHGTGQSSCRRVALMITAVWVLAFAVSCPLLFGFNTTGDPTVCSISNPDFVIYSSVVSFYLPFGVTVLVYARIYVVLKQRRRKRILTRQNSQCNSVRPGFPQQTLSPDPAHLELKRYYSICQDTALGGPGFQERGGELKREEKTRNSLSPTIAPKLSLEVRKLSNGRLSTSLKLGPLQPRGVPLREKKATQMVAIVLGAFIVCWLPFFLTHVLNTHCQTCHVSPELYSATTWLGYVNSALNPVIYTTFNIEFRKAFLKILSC
# D(2) dopamine receptor, sequence (P14416 whole entry): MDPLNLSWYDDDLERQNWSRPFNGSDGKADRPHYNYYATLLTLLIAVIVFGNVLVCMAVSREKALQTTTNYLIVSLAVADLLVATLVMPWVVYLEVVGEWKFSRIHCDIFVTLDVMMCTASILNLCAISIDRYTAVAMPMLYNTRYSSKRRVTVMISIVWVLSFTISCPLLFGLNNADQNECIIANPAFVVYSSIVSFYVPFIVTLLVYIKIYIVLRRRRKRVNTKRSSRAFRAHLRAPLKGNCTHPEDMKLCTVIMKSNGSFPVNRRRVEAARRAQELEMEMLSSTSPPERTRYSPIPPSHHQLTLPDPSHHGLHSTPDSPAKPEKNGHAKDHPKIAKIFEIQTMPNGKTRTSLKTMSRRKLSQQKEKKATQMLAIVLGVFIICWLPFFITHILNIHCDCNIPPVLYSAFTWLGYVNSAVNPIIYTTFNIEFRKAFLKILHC
SMILES,Ki (D(3) dopamine receptor) [nM],Ki (D(2) dopamine receptor) [nM],also measured
CC(C)(C)c1nc(N2CCN(CCCCn3ccc(N4CCC4)nc3=O)CC2)cc(C(F)(F)F)n1,4.4,82.1,
CC(C)(C)c1nc(N2CCN(CCCCn3ccc(C4CCCCC4)nc3=O)CC2)cc(C(F)(F)F)n1,,302,
Cn1c(=O)ccn(CCCCN2CCN(c3cc(C(F)(F)F)nc(C(C)(C)C)n3)CC2)c1=O,11.8,610,
Cc1cn(CCCCN2CCN(c3cc(C(F)(F)F)nc(C(C)(C)C)n3)CC2)c(=O)[nH]c1=O,,320,Stability (Liver microsomes [1]): > 97%; Stability (Liver microsomes [2]): > 97%; ED50 (Rattus norvegicus): 6.1 mg/kg; Papp [3]: 1.94 ×10⁻⁶ cm/s
CC(C)(C)c1nc(N2CCN(CCCCn3cc(C#N)c(=O)[nH]c3=O)CC2)cc(C(F)(F)F)n1,,473,
CCOc1ccn(CCCCN2CCN(c3cc(C(F)(F)F)nc(C(C)(C)C)n3)CC2)c(=O)n1,,290,
Cc1ccn(CCCCN2CCN(c3cc(C(F)(F)F)nc(C(C)(C)C)n3)CC2)c(=O)n1,,307,
CC(C)(C)c1nc(N2CCN(CCCCn3cc(F)c(=O)[nH]c3=O)CC2)cc(C(F)(F)F)n1,,602,
CC(C)(C)c1nc(N2CCN(CCCCn3cccnc3=O)CC2)cc(C(F)(F)F)n1,12.9,447,
CC(C)(C)c1nc(N2CCN(CCCCn3cc(C(F)(F)F)c(=O)[nH]c3=O)CC2)cc(C(F)(F)F)n1,,646,
Cc1cn(CCCCN2CCN(c3cc(C(F)(F)F)nc(C(C)(C)C)n3)CC2)c(=O)n(C)c1=O,10.4,356,
CC(C)(C)c1nc(N2CCN(CCCSc3nccc(O)n3)CC2)cc(C(F)(F)F)n1 [ABT-925],,351,

# Second part, led by results:
Ki (D(3) dopamine receptor) [nM],Ki (D(2) dopamine receptor) [nM],SMILES,also measured
,168,CC(C)(C)c1nc(N2CCN(CCCCn3ccc(-c4ccccc4)nc3=O)CC2)cc(C(F)(F)F)n1,
,220,CC(C)(C)c1nc(N2CCN(CCCCn3cc(Cl)c(=O)[nH]c3=O)CC2)cc(C(F)(F)F)n1,
3.4,89.4,CC(C)(C)c1nc(N2CCN(CCCCn3ccc(N4CCCCC4)nc3=O)CC2)cc(C(F)(F)F)n1,
,216,CC(C)(C)c1ccn(CCCCN2CCN(c3cc(C(F)(F)F)nc(C(C)(C)C)n3)CC2)c(=O)n1,
3.7,155,CC(C)(C)c1nc(N2CCN(CCCCn3ccc(C4CC4)nc3=O)CC2)cc(C(F)(F)F)n1,
,273,CC(C)(C)c1nc(N2CCN(CCCCn3ccc(C4CCC4)nc3=O)CC2)cc(C(F)(F)F)n1,
1.7,148,CCc1cn(CCCCN2CCN(c3cc(C(F)(F)F)nc(C(C)(C)C)n3)CC2)c(=O)[nH]c1=O,
,196,CC(C)(C)c1nc(N2CCN(CCCCn3ccc(=O)[nH]c3=O)CC2)cc(C(F)(F)F)n1,

# From ChEMBL document CHEMBL1149389 (Bioorg Med Chem Lett, 2006)
